{
  "source": "patent US20260193171A1",
  "about": "“PHARMACEUTICAL SALT OF POLYAMINE DERIVATIVE, CRYSTAL FORM THEREOF, AND PREPARATION METHOD THEREFOR” (WUHAN WUYAO SCI & TECH CO., LTD, priority 2022, published 2026)",
  "type_in_all_cases": "physicochemical",
  "key": {"[1]": {"assay": "Screening of salt form (salt-forming morphology)", "details": "for Salt-forming morphology: free base in ethanol plus acid, room temperature, acid-base molar feeding ratio 1:1 (α, unmarked) or 3:1 (β)", "protocol": "The subsequent processing steps were as follows: 1) the turbid system(s) was centrifuged to separate solids; 2) the wall-sticking and gelling system(s) was subjected to cyclic heating and cooling treatment at 25-50° C. (the heating and cooling procedure is shown in Table 5) for the purpose of trying to improve the apparent state/obtain solids; 3) the clear or slightly turbid system(s) was magnetically stirred at 5° C. for about 5 h, and then left to stand at −20° C. overnight for the purpose of trying to collect a sufficient amount of solids for subsequent characterization, and if the amount of solids was still low, slow volatilization at room temperature was performed; if the system(s) was still clear ultimately, anti-solvent addition (n-heptane) or slow volatilization at room temperature was performed. The solids obtained above were centrifuged."}, "[2]": {"assay": "Solid stability test at 25° C./60% RH, chemical purity by HPLC", "details": "for Change in properties and purity on storage: 5 days and 2 weeks; for Purity (peak area, %) 0 day: initial sample; for Stability (judgement in words): room temperature storage", "protocol": "The stability of a sample(s) was determined by HPLC, and specifically, Agilent 1260 Infinity II LC System (equipped with a DAD detector) was used to collect the purity and solubility data of the sample(s).\nTo assess the solid stability of different salts, about 15 mg of a sample was weighed into an HPLC vial, and the vial was opened and placed at 25° C./60% RH. The initial sample and the samples stored for 5 days and 2 weeks were subjected to chemical purity assays (HPLC) and hygroscopicity tests. […] The solid phosphate prepared with an acid-base feeding ratio of 1 or 3 was sampled to measure the acid-base ratio, and the test method for the content of phosphate radical ions is shown in Table 2.\n(§1) The stability of the samples were determined by HPLC, and specifically, Agilent 1260 Infinity II LC System (equipped with a DAD detector) was used to collect the purity and solubility data of samples. The hygroscopicity of samples was determined according to the method in the Phamacopoeia of the People's Republic of China, and the specific determination method is shown in section “6. Determination of hygroscopicity” of the specification."}, "[3]": {"assay": "Determination of hygroscopicity (Chinese Pharmacopoeia 2015)", "details": "25° C., 80% RH, 24 h; for Hygroscopicity (%): weight gain", "protocol": "The hygroscopicity was determined by referring to the guiding principle of the hygroscopicity test of medicaments in the Phamacopoeia of the People's Republic of China 2015 Edition. The specific test method is as follows: • 1. taking a dried glass weighing bottle with a stopper (outside diameter: 50 mm, height: 15 mm) and placing in a suitable 25° C.±1° C. thermostatic dryer (with a saturated ammonium chloride or ammonium sulfate solution placed in the lower part) or a climatic cabinet (with temperature set at 25° C.±1° C., and relative humidity set at 80%±2%) one day before the test, and accurately weighing the weight (m1). • 2. taking an appropriate amount of a test sample, spreading it in the weighing bottle described above with a thickness of about 1 mm, and accurately weighing the weight (m2). • 3. opening the weighing bottle, and placing it under constant temperature and humidity conditions for 24 h together with the bottle cap. • 4. covering the weighing bottle, and accurately weighing the weight (m3).\nas §1"}, "[4]": {"assay": "Stability of acid-base ratio on recrystallization in methanol-water or water-methanol", "details": "methanol-water or water-methanol recrystallization system"}, "[5]": {"assay": "Stability of free base left at room temperature"}, "[6]": {"assay": "Crystal form stability of phosphate crystal form A", "details": "2 weeks", "protocol": "The conditions of the X-ray powder diffractometer (XRPD) test were as follows: X-ray powder diffraction data of a sample(s) was collected at ambient conditions using Bruker D2 PHASER X-ray powder diffractometer with an X-ray emitter power of 300 W, a sample stage with no background signal, a step speed of 0.15 s/step, total step of 1837 steps, a step size of 2θ=0.02°, a voltage of 30 kV, and a current of 10 mA. The X-ray tube was a tube of Cu target (Kα) with a Kα2/Kα1 strength ratio of 0.50 (1.54439 Å/1.5406 Å)."}, "[7]": {"assay": "Dynamic solubility in water and biological vehicles at 37° C.", "details": "for solubility: thermodynamic from solid, 100 rpm, 1/4/24 h, HPLC", "protocol": "The phosphate was subjected to dynamic solubility tests in water and 3 biological vehicles (simulated gastric juice SGF, simulated fasting intestinal juice FaSSIF, and simulated feeding intestinal juice FeSSIF) at 37° C., and the specific method for the solubility tests were as follows: four samples of 30 mg each were weighed, and added into 3 mL of water and 3 biological solvents separately, and shaken at a constant temperature of 37° C.\nThe solubility of the phosphate in water/SGF/FaSSIF/FeSSIF was >9 mg/mL. The solubility of samples was determined by HPLC, and specifically, Agilent 1260 Infinity II LC System (equipped with a DAD detector) was used to collect the purity and solubility data of samples. […] The phosphate had good solubility both in water and simulated in-vivo environment."}, "[8]": {"assay": "Observation of isolated solid after filtration", "details": "after slurrying with ethyl acetate and filtration, room temperature", "protocol": "The solution of phosphoric acid in methanol was slowly and dropwise added to the solution of the free base in methanol. The mixture was reacted under stirring at 0-5° C. for 4 h. Serious wall sticking was observed. After the methanol was concentrated to dryness, the sticky solid on the wall was scraped by a spatula, slurried with ethyl acetate, and then filtered. […] The oil was dried in an oven at 30° C. for 16 h to obtain a solid. The solid was sampled for purity, content, and acid-base ratio tests. The acid-base ratio is the molar amount of phosphoric acid/the molar amount of bis((N-3-aminopropyl)-(N-(3,4-dimethoxyphenylpropionyl)))aminopropylamine, namely the acid-base molar ratio."}},
  "note": "Where two headings read alike, the source gives them in different places.",
  "data": [
    {"molecule": "O=C(O)/C=C/C(=O)O", "note": "[Fumaric acid]", "values": [
      {"measurement": "Salt-forming morphology", "setting": "[1]", "result": "Gel^#"}
    ]},
    {"molecule": "O=C(O)/C=C\\C(=O)O", "note": "[Maleic acid]", "values": [
      {"measurement": "Salt-forming morphology", "setting": "[1]", "result": "Gel^#"}
    ]},
    {"molecule": "bis((N-3-aminopropyl)-(N-(3,4-dimethoxyphenylpropionyl)))aminopropylamine phosphate", "values": [
      {"measurement": "Purity (peak area, %) 2 weeks", "setting": "[2]; 25° C./60% RH, open vial, 2 weeks, HPLC", "result": 99.24, "unit": "%"},
      {"measurement": "Change in properties and purity on storage", "setting": "[2]; 25° C./60% RH, open vial", "result": "change into liquid from powdery solid"},
      {"measurement": "Purity (peak area, %) 5 days", "setting": "[2]; 25° C./60% RH, open vial, 5 days, HPLC", "result": 99.41, "unit": "%"},
      {"measurement": "Purity (peak area, %) 0 day", "setting": "[2]; 25° C./60% RH, open vial, HPLC", "result": 99.45, "unit": "%"},
      {"measurement": "Stability (judgement in words)", "setting": "[2]", "result": "poor stability"},
      {"measurement": "Hygroscopicity class", "setting": "[3]", "result": "extremely hygroscopic"},
      {"measurement": "Hygroscopicity (%)", "setting": "[3]", "result": 18.05, "unit": "%"},
      {"measurement": "Change of acid-base ratio after recrystallization", "setting": "[4]", "result": "more than 10%"}
    ]},
    {"molecule": "O=C(O)[C@H](O)[C@@H](O)C(=O)O", "note": "[L-tartaric acid]", "values": [
      {"measurement": "Salt-forming morphology", "setting": "[1]", "result": "Solid^※"},
      {"measurement": "State of solid after being sealed and placed at room temperature", "setting": "[1]; sealed, 1 week", "result": "gelled"}
    ]},
    {"molecule": "Oxalate", "values": [
      {"measurement": "Hygroscopicity class", "setting": "[3]", "result": "extremely hygroscopic"},
      {"measurement": "Hygroscopicity (%)", "setting": "[3]", "result": 18.62, "unit": "%"},
      {"measurement": "Salt-forming morphology", "setting": "[1]", "result": "Solid"}
    ]},
    {"molecule": "Cc1ccc(S(=O)(=O)O)cc1", "note": "[p-Toluene sulfonic acid]", "values": [
      {"measurement": "Salt-forming morphology", "setting": "[1]", "result": "Gel*"}
    ]},
    {"molecule": "O=C(O)CNC(=O)c1ccccc1", "note": "[Hippuric acid]", "values": [
      {"measurement": "Salt-forming morphology", "setting": "[1]", "result": "Oil^#"}
    ]},
    {"molecule": "O=C(O)c1ccccc1", "note": "[Benzoic acid]", "values": [
      {"measurement": "Salt-forming morphology", "setting": "[1]", "result": "Oil^#"}
    ]},
    {"molecule": "COc1ccc(CCC(=O)NCCCN(CCCN)CCCNC(=O)CCc2ccc(OC)c(OC)c2)cc1OC", "note": "[free base, bis((N-3-aminopropyl)-(N-(3,4-dimethoxyphenylpropionyl)))aminopropylamine]", "values": [
      {"measurement": "Purity before storage", "setting": "[5]; initial", "result": 97.56, "unit": "%"},
      {"measurement": "Purity after left at room temperature for 7 days", "setting": "[5]; room temperature, 7 days", "result": 73.73, "unit": "%"}
    ]},
    {"molecule": "CS(=O)(=O)O", "note": "[Methanesulfonic acid]", "values": [
      {"measurement": "Salt-forming morphology", "setting": "[1]", "result": "Gel*"}
    ]},
    {"molecule": "COc1ccc(CCC(=O)N(CCCN)CCCNCCCN(CCCN)C(=O)CCc2ccc(OC)c(OC)c2)cc1OC", "note": "[Example 7, bis((N-3-aminopropyl)-(N-(3,4-dimethoxyphenylpropionyl)))aminopropylamine phosphate]", "values": [
      {"measurement": "Change in crystal form after storage", "setting": "[6]; 25° C./60% RH", "result": "no change in crystal form"},
      {"measurement": "Change in crystal form after storage", "setting": "[6]; 60° C.", "result": "no change in crystal form"},
      {"measurement": "Change in crystal form after storage", "setting": "[6]; 80° C.", "result": "no change in crystal form"},
      {"measurement": "Change in crystal form after storage", "setting": "[6]; illumination", "result": "no change in crystal form"}
    ]},
    {"molecule": "O=C(O)CCC(=O)O", "note": "[Succinic acid]", "values": [
      {"measurement": "Salt-forming morphology", "setting": "[1]", "result": "Gel*"}
    ]},
    {"molecule": "COc1ccc(CCC(=O)N(CCCN)CCCNCCCN(CCCN)C(=O)CCc2ccc(OC)c(OC)c2)cc1OC", "note": "[bis((N-3-aminopropyl)-(N-(3,4-dimethoxyphenylpropionyl)))aminopropylamine phosphate]", "values": [
      {"measurement": "Change in properties and purity on storage", "setting": "[2]; 25° C./60% RH, open vial", "result": "no obvious change in properties and purity"},
      {"measurement": "Purity (peak area, %) 0 day", "setting": "[2]; 25° C./60% RH, open vial, HPLC", "result": 99.56, "unit": "%"},
      {"measurement": "Stability (judgement in words)", "setting": "[2]", "result": "good stability"},
      {"measurement": "Hygroscopicity class", "setting": "[3]", "result": "slightly hygroscopic"},
      {"measurement": "Hygroscopicity (%)", "setting": "[3]", "result": 1.29, "unit": "%"},
      {"measurement": "solubility", "setting": "[7]; simulated fasting intestinal juice (FaSSIF), fassif, simulated fasting intestinal juice, read-out: Solubility in FaSSIF", "result": "> 9", "unit": "mg/mL"},
      {"measurement": "solubility", "setting": "[7]; simulated feeding intestinal juice (FeSSIF), fessif, simulated feeding intestinal juice, read-out: Solubility in FeSSIF", "result": "> 9", "unit": "mg/mL"},
      {"measurement": "solubility", "setting": "[7]; simulated gastric juice (SGF), simulated gastric fluid, simulated gastric juice, read-out: Solubility in SGF", "result": "> 9", "unit": "mg/mL"},
      {"measurement": "solubility", "setting": "[7]; water, 30 mg in 3 mL, read-out: Solubility in water", "result": "> 9", "unit": "mg/mL"},
      {"measurement": "pH value change during dynamic solubility test", "setting": "[7]; within 24 h", "result": "did not change"}
    ]},
    {"molecule": "bis((N-3-aminopropyl)-(N-(3,4-dimethoxyphenylpropionyl)))aminopropylamine hydrochloride [Hydrochloride^α]", "values": [
      {"measurement": "Hygroscopicity class", "setting": "[3]", "result": "extremely hygroscopic"},
      {"measurement": "Hygroscopicity (%)", "setting": "[3]", "result": 24.7, "unit": "%"}
    ]},
    {"molecule": "O=C(O)c1cc(O)ccc1O", "note": "[Gentisic acid]", "values": [
      {"measurement": "Salt-forming morphology", "setting": "[1]", "result": "Gel^†"}
    ]},
    {"molecule": "COc1ccc(CCC(=O)NCCCN(CCCN)CCCNC(=O)CCc2ccc(OC)c(OC)c2)cc1OC.O=P(O)(O)O", "note": "[Comparative Example 1, bis((N-3-aminopropyl)-(N-(3,4-dimethoxyphenylpropionyl)))aminopropylamine phosphate]", "values": [
      {"measurement": "Hygroscopic behaviour of solid after filtration", "setting": "[8]", "result": "extremely hygroscopic and quickly turned into an oil"}
    ]}
  ]
}
